Measured values from ChEMBL document CHEMBL1129576, “Nucleosides and nucleotides. 158. 1-(3-C-ethynyl-beta-D-ribo-pentofuranosyl)-cytosine, 1-(3-C-ethynyl-beta-D-ribo-pentofuranosyl)uracil, and their nucleobase analogues as new potential multifunctional antitumor nucleosides with a broad spectrum of activity” (J Med Chem, 1996).

Columns and labels:
KB = assay: In vitro tumor cell growth inhibitory activity against human nasopharyngeal KB cell lines; type: functional, cell-based
L1210 = assay: In vitro tumor cell growth inhibitory activity against mouse leukemia L1210 cell lines.; type: functional, cell-based
Mus musculus [1] = assay: In vivo inhibitory activity against BxPC-3 tumor xenograft of pancreas in nude mice at a concentration of 15 mg/kg for 15 days; type: functional
Mus musculus [2] = assay: In vivo tumor cell growth inhibitory activity of CO-3 tumor xenograft of […] in nude mice at a concentration of 15 mg/kg for 15 days; type: functional
Mus musculus [3] = assay: In vivo tumor cell growth inhibitory activity against JRC-11 cells tumor xenograft of renal in nude mice at a concentration of 15 mg/kg for 15 days; type: functional
Mus musculus [4] = assay: In vivo tumor cell growth inhibitory activity against AZ-521 tumor xenograft of stomach in nude mice at a concentration of 15 mg/kg for 15 days; type: functional
Mus musculus [5] = assay: In vivo tumor cell growth inhibitory activity against DLD-1 tumor xenograft of […] in nude mice at a concentration of 15 mg/kg for 15 days; type: functional
Mus musculus [6] = assay: In vivo tumor cell growth inhibitory activity of H-81 tumor xenograft of stomach in nude mice at a concentration of 15 mg/kg for 15 days; type: functional
Mus musculus [7] = assay: In vivo tumor cell growth inhibitory activity against H-31 cells tumor xenograft of breast in nude mice at a concentration of 15 mg/kg for 15 days; type: functional
Mus musculus [8] = assay: In vivo tumor cell growth inhibitory activity against Hucc-T1 cells tumor xenograft of bile duct in nude mice at a concentration of 15 mg/kg for 15 days; type: functional
Mus musculus [9] = assay: In vivo tumor cell growth inhibitory activity against KM12C tumor xenograft of […] in nude mice at a concentration of 15 mg/kg for 15 days; type: functional
Mus musculus [10] = assay: In vivo inhibitory activity against PAN-12 tumor xenograft of pancreas in nude mice at a concentration of 15 mg/kg for 15 days; type: functional
PC-9 = assay: In vitro tumor cell growth inhibitory activity against Human lung (adenocarcinoma) cell lines PC-9; type: functional, cell-based
[11] = test system: MIA PaCa-2 (Homo sapiens); assay: In vitro tumor cell growth inhibitory activity against Human pancreas (adenocarcinoma) cell Mia-PaCa-2
MKN-28 = assay: In vitro tumor cell growth inhibitory activity against Human stomach (adenocarcinoma) cell lines. MKN-28; type: functional, cell-based
SW480 = assay: In vitro tumor cell growth inhibitory activity against i Human colon (adenocarcinoma) cell lines. SW-480; type: functional, cell-based
Mus musculus [12] = assay: In vivo inhibitory activity against Hucc-T1 cells tumor xenograft of bile duct in nude mice at a concentration of 0.25 mg/kg for 10 days; type: functional
fLS = assay: In vitro tumor cell growth inhibitory activity of Human stomach (adenocarcinoma) cell lines. fLS; type: functional, cell-based
SW48 = assay: In vitro tumor cell growth inhibitory activity against i Human colon (adenocarcinoma) cell lines. SW-48; type: functional, cell-based
Mus musculus [13] = assay: In vivo tumor cell growth inhibitory activity against NUGC-3 tumor xenograft of stomach in nude mice at a concentration of 0.25 mg/kg for 10 days; type: functional
Mus musculus [14] = assay: In vivo tumor cell growth inhibitory activity of CO-3 tumor xenograft of […] in nude mice at a concentration of 0.25 mg/kg for 10 days; type: functional
PC10 = assay: In vitro tumor cell growth inhibitory activity against Human lung (adenocarcinoma) cell lines PC-10; type: functional, cell-based
ST-KM-1 = assay: In vitro tumor cell growth inhibitory activity against Human stomach (adenocarcinoma) cell linesST-KM; type: functional, cell-based
COLO 320DM = assay: In vitro tumor cell growth inhibitory activity against i Human colon (adenocarcinoma) cell lines. COLO 320DM; type: functional, cell-based
Mus musculus [15] = assay: In vivo tumor cell growth inhibitory activity against KM12C tumor xenograft of […] in nude mice at a concentration of 0.25 mg/kg for 10 days; type: functional
KK-47 cell line = assay: In vitro tumor cell growth inhibitory activity against Human bladder carcinoma cell lines. kK-47; type: functional, cell-based
QG-96 = assay: In vitro tumor cell growth inhibitory activity against Human lung small-cell carcinoma cellb) QG-96; type: functional, cell-based
Mus musculus [16] = assay: In vivo inhibitory activity against JRC-11 cells tumor xenograft of renal in nude mice at a concentration of 0.25 mg/kg for 10 days; type: functional
Mus musculus [17] = assay: In vivo tumor cell growth inhibitory activity against CO-3 tumor xenograft of colon in nude mice at a concentration of 0.25 mg/kg for 10 days; type: functional
HCT-15 = assay: In vitro tumor cell growth inhibitory activity against HCT-15; type: functional, cell-based; conditions: Homo sapiens
HOS = assay: In vitro tumor cell growth inhibitory activity against Human osteosarcoma cell lines. HOS; type: functional, cell-based
QG-56 = assay: In vitro tumor cell growth inhibitory activity against Human lung squamous-cell carcinoma cell linesQG-56; type: functional, cell-based
YMB-1-E = assay: In vitro tumor cell growth inhibitory activity against Human breast (adenocarcinoma) cell lines YMB-1-E.; type: functional, cell-based
NCI-H82 (Homo sapiens) = assay: In vitro tumor cell growth inhibitory activity against Human lung small-cell carcinoma cellc) NCI-H-82
MCF7 = assay: In vitro tumor cell growth inhibitory activity against Human breast (adenocarcinoma) cell lines. MCF-7; type: functional, cell-based
Mus musculus [18] = assay: In vivo tumor cell growth inhibitory activity of H-81 tumor xenograft of stomach in nude mice at a concentration of 0.25 mg/kg for 10 days; type: functional
QG-90 = assay: In vitro tumor cell growth inhibitory activity against Human lung small-cell carcinoma cell lines. QG-90; type: functional, cell-based
NAKAJIMA = assay: In vitro tumor cell growth inhibitory activity against Human stomach (adenocarcinoma) cell lines. h) NAKAJIMA; type: functional, cell-based
A-375 = assay: In vitro tumor cell growth inhibitory activity against Human melanoma cell lines A375; type: functional, cell-based
T-24 = assay: In vitro tumor cell growth inhibitory activity against Human bladder carcinoma cell lines. T24; type: functional, cell-based
MKN-45 (Homo sapiens) = assay: In vitro tumor cell growth inhibitory activity against Human stomach (adenocarcinoma) cell lines. MKN-45
[19] = In vitro tumor cell growth inhibitory activity against Human lung squamous-cell carcinoma cell lines QG-95; type: functional
A-431 = assay: In vitro tumor cell growth inhibitory activity against Human […] A431 cell lines; type: functional, cell-based
MG-63 = assay: In vitro tumor cell growth inhibitory activity against Human osteosarcoma cell lines MG-63.; type: functional, cell-based
Mus musculus [20] = assay: In vivo inhibitory activity against DLD-1 tumor xenograft of colon in nude mice at a concentration of 0.25 mg/kg for 10 days; type: functional
Mus musculus [21] = assay: In vivo inhibitory activity against H-31 cells tumor xenograft of breast in nude mice at a concentration of 0.25 mg/kg for 10 days; type: functional
Lu-65 = assay: In vitro tumor cell growth inhibitory activity against Human lung large-cell carcinoma Lu-65 cell lines.; type: functional, cell-based
NUGC-4 = assay: In vitro tumor cell growth inhibitory activity of Human stomach (adenocarcinoma) cell lines. NUGC-4; type: functional, cell-based
MDA-MB-231 = assay: In vitro tumor cell growth inhibitory activity against Human breast (adenocarcinoma) cell lines. […]; type: functional, cell-based
[22] = test system: KATO III stomach cancer cell line; assay: In vitro tumor cell growth inhibitory activity of Human stomach (adenocarcinoma) cell lines. KATO-III; type: functional, cell-based
Mus musculus [23] = assay: In vivo inhibitory activity against PAN-12 tumor xenograft of pancreas in nude mice at a concentration of 0.25 mg/kg for 10 days; type: functional
PANC-1 = assay: In vitro tumor cell growth inhibitory activity against Human pancreas (adenocarcinoma) cell lines. PANC-1; type: functional, cell-based
HT-1080 = assay: In vitro tumor cell growth inhibitory activity against Human fibrosarcoma HT1080 cell lines.; type: functional, cell-based
[24] = In vitro tumor cell growth inhibitory activity against Human stomach (adenocarcinoma) cell lines STSA-1
PC-8 = assay: In vitro tumor cell growth inhibitory activity against Human lung (adenocarcinoma) cell lines. PC-8; type: functional, cell-based
NCI-H417 = assay: In vitro tumor cell growth inhibitory activity against Human lung small-cell carcinoma cell NCI-H-417; type: functional, cell-based

Compound: C#CC1(O)[C@@H](CO)O[C@@H](n2cc(F)c(=O)[nH]c2=O)[C@@H]1O (single isomer, unassigned)
- IC50 (KB): 1400 nM
- IC50 (L1210): 2500 nM

Compound: C#C[C@@]1(O)[C@@H](CO)O[C@@H](n2cnc3c(N)ncnc32)[C@@H]1O
- IC50 (KB): 830 nM
- IC50 (L1210): 690 nM

Compound: O=c1[nH]cc(F)c(=O)[nH]1 [FLUOROURACIL]
- Inhibition ratio (Mus musculus [1]): 50%
- Inhibition ratio (Mus musculus [2]): 49%
- Inhibition ratio (Mus musculus [3]): 69%
- Inhibition ratio (Mus musculus [4]): 25%
- Inhibition ratio (Mus musculus [5]): 50%
- Inhibition ratio (Mus musculus [6]): 83%
- Inhibition ratio (Mus musculus [7]): 68%
- Inhibition ratio (Mus musculus [8]): 1%
- Inhibition ratio (Mus musculus [9]): 59%
- Inhibition ratio (Mus musculus [10]): 40%

Compound: C#C[C@@]1(O)[C@@H](CO)O[C@@H](n2cc(C)c(=O)[nH]c2=O)[C@@H]1O
- IC50 (KB): > 300000 nM
- IC50 (L1210): > 300000 nM

Compound: C#CC1(O)[C@@H](CO)O[C@@H](n2cnc3c(O)nc(N)nc32)[C@@H]1O (single isomer, unassigned)
- IC50 (KB): > 300000 nM
- IC50 (L1210): > 300000 nM

Compound: C#C[C@]1(O)[C@@H](CO)O[C@@H](n2ccc(N)nc2=O)[C@@H]1O
- IC50 (PC-9): 110 nM
- IC50 [11]: 15 nM
- IC50 (MKN-28): 210 nM
- IC50 (SW480): 260 nM
- IC50 (KB): 28 nM
- Inhibition ratio (Mus musculus [12]): 55%
- IC50 (fLS): 21 nM
- IC50 (SW48): > 1900 nM
- Inhibition ratio (Mus musculus [13]): 84%
- Inhibition ratio (Mus musculus [14]): 80%
- IC50 (PC10): 160 nM
- IC50 (ST-KM-1): 47 nM
- IC50 (COLO 320DM): 20 nM
- Inhibition ratio (Mus musculus [15]): 83%
- IC50 (KK-47 cell line): 120 nM
- IC50 (QG-96): 390 nM
- Inhibition ratio (Mus musculus [16]): 73%
- Inhibition ratio (Mus musculus [17]): 88%
- IC50 (HCT-15): 8.2 nM
- IC50 (HOS): 1000 nM
- IC50 (QG-56): 45 nM
- IC50 (YMB-1-E): 160 nM
- IC50 (NCI-H82 (Homo sapiens)): 120 nM
- IC50 (MCF7): 69 nM
- Inhibition ratio (Mus musculus [18]): 92%
- IC50 (QG-90): 130 nM
- IC50 (NAKAJIMA): 170 nM
- IC50 (A-375): 26 nM
- IC50 (T-24): 28 nM
- IC50 (MKN-45 (Homo sapiens)): 8.8 nM
- IC50 (L1210): 16 nM
- IC50 [19]: 210 nM
- IC50 (A-431): 33 nM
- IC50 (MG-63): 150 nM
- Inhibition ratio (Mus musculus [20]): 78%
- Inhibition ratio (Mus musculus [21]): 76%
- IC50 (Lu-65): 32 nM
- IC50 (NUGC-4): 24 nM
- IC50 (MDA-MB-231): 24 nM
- IC50 [22]: 31 nM
- Inhibition ratio (Mus musculus [23]): 75%
- IC50 (PANC-1): > 1900 nM
- IC50 (HT-1080): 73 nM
- IC50 [24]: 150 nM
- IC50 (PC-8): 90 nM
- IC50 (NCI-H417): 43 nM

Compound: C#C[C@]1(O)[C@@H](CO)OC(n2cc(F)c(N)nc2=O)[C@@H]1O (single isomer, unassigned)
- IC50 (KB): 460 nM
- IC50 (L1210): 530 nM
